Here are results for four compounds from patent US8710085B2, “Pyrrolidine-1,2-dicarboxamide derivatives” (Novartis AG, priority 2008, dated 2014).

The target in series [1] is T1, PI3Kα (Homo sapiens, UniProt P42336).
T1 construct: p110α(21-1068)-His; made in house; host or cells: baculovirus, Tn5 insect cells
Briefly: PI3K KinaseGlo assay, PI3Kα. Format: biochemical. As to conditions: KinaseGlo; 10 nM enzyme, 1 μM ATP, 30 mins, room temperature; read-out: PI3Ka/IC50.

Series [2] concerns the target T2, PI3Kβ (Homo sapiens, UniProt P42338).
T2 construct: p110β(2-1070)-His; made in house; host or cells: baculovirus, Tn5 insect cells
Briefly: PI3K KinaseGlo assay, PI3Kβ. It is filed as biochemical. As to conditions: KinaseGlo; 25 nM enzyme, 1 μM ATP, 30 mins, room temperature; read-out: PI3Kb/IC50. As to the method: PI3K KinaseGlo assay: […] of compound dilutions were dispensed onto black 384-well low volume Non Binding Styrene (NBS) plates (Costar Cat. No. NBS#3676). L-a-phosphatidylinositol (PI), provided as 10 mg/ml solution in methanol, was transferred into a glass tube and dried under nitrogen beam. It was then resuspended in 3% OctylGlucoside (OG) by vortexing and stored at 4° C. The KinaseGlo Luminescent Kinase Assay (Promega, Madison/WI, USA) is a homogeneous HTS method of measuring kinase activity by quantifying the amount of ATP remaining in solution following a kinase reaction.
5 μL of a mix of PI/OG with the PI3K subtype were added (Table 1). Kinase reactions were started by addition of 5 μl of ATP-mix containing in a final volume 10 μL 10 mM TRIS-HCl pH 7.5, 3 mM MgCl2, 50 mM NaCl, 0.05% CHAPS, 1 mM DTT and 1 μM ATP, and occurred at room temperature. […] The standard was used as a reference compound and included in all assay plates in the form of 16 dilution points in duplicate.
The PI3Kα, PI3Kβ and PI3Kδ constructs are fusion of p85α iSH2 domain and the respective p110 isoforms. The p85α fragment and p110 isoform genes were generated by PCR from first strand cDNA generated by RT-PCR from commercial RNA from placenta, testis and brain as described below. The PI3Kγ construct was obtained from Roger Williams lab, MRC Laboratory of Molecular Biology, Cambridge, UK (November, 2003) and is described (Pacold, Michael E.; Suire, Sabine; Perisic, Olga; Lara-Gonzalez, Samuel; Davis, Colin T.; Walker, Edward H.; Hawkins, Phillip T.; Stephens, Len; Eccleston, John F.; Williams, Roger L. Crystal structure and functional analysis of Ras binding to its effector phosphoinositide 3-kinase gamma. Cell (2000), 103(6), 931-943).
BV949: PCR products for the inter SH2 domain (iSH2) of the p85 PI3Kα, PI13Kβ and PI3Kδ subunit and for the full-length p110β subunit were generated and fused by overlapping PCR. […] The p11013 fragment was obtained by PCR using as template a p110β clone (from unknown source that was sequence verified) using primers gwG130-p04 (5′-[…]-[…]-3′) (SEQ ID NO: 9) which contains linker sequences and the 5′ end of p110β and gwG130-p06 (5′-[…]-[…]-3′) (SEQ ID NO: 10) which contains sequences of the 3′ end of p110-β fused to a Histidine tag. […] This final product was recombined in a Gateway (Invitrogen) […] into the donor vector pDONR201 (Invitrogen) to generate the ORF253 entry clone. This clone was verified by sequencing and used in a Gateway LR reaction (Invitrogen) to transfer the insert into the Gateway adapted pBlueBac4.5 (Invitrogen) vector for generation of the baculovirus expression vector LR280.
(§1) PI3Kα, PI3Kβ and PI3Kγ were purified in two chromatographic steps: immobilized metal affinity chromatography (IMAC) on a Ni sepharose resin (GE Healthcare) and gel filtration utilizing a Superdex 200 26/60 column (GE Healthcare). All buffers were chilled to 4° C. and lysis was performed chilled on ice. Column fractionation was performed at room temperature. All buffers used to purify PI3Kβ contained 0.05% Triton X100 in addition to what is described below.
The lysate was centrifuged at 45,000 g for 30 minutes, and the supernatant was loaded onto a pre-equilibrated IMAC column (3 mL resin/100 mL lysate). […] Protein was eluted with 20 mM Tris-Cl, pH 7.5, 0.5 M NaCl, 5% glycerol, 250 mM imidazole, 1 mM NaF, 0.1 μg/mL OAA, 5 mM BME, 1× Complete protease inhibitor cocktail—EDTA-free. Pertinent fractions were analyzed by SDS-PAGE and pooled accordingly. The protein was further purified by gel filtration on a Superdex 200 26/60 column equilibrated in 20 mM Tris-Cl, pH 7.5, 0.5 M NaCl, 5% glycerol, 1 mM NaF, 5 mM DTT, 1× Complete protease inhibitor cocktail—EDTA-free. Pertinent fractions were analyzed by SDS-PAGE and pooled accordingly.
(In general: Kinase-Glo reads ATP consumption through a luciferase reaction.)

Series [3] deals with T3, PI3Kδ (Homo sapiens, UniProt O00329).
T3 construct: p85iSH2(461-568)-GGGGGG-p110δ(2-1044)-His; made in house; host or cells: baculovirus, Tn5 insect cells
T3 sequence (O00329 with tags, fused parts or gaps): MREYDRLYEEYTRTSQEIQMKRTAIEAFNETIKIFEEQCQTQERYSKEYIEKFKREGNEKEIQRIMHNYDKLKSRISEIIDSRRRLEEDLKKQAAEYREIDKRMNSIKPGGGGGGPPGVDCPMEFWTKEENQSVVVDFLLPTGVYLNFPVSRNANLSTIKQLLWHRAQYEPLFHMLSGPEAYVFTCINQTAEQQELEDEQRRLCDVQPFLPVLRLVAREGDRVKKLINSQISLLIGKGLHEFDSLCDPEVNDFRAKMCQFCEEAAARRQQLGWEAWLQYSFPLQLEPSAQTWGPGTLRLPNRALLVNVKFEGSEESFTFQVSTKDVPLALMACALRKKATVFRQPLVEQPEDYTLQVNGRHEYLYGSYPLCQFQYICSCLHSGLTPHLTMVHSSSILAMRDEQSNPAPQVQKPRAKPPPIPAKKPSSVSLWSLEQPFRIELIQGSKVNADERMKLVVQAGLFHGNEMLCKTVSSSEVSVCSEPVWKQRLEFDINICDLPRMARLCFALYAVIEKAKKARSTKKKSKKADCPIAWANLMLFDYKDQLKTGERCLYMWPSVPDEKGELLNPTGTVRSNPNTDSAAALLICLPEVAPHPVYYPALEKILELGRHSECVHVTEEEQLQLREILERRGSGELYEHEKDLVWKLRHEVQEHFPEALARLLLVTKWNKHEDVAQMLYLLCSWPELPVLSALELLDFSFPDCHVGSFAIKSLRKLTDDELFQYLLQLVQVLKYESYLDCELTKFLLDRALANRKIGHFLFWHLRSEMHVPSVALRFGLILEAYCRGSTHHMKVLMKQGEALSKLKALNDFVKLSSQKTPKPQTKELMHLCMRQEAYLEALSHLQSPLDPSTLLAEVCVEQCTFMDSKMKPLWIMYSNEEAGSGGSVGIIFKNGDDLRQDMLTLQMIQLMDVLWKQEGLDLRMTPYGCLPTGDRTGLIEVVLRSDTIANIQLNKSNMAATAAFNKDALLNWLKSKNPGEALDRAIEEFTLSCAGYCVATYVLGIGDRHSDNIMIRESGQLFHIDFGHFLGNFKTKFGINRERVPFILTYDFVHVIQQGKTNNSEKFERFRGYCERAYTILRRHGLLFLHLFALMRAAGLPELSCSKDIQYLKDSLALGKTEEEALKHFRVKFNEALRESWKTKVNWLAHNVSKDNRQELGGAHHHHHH
Briefly: PI3K KinaseGlo assay, PI3Kδ. As to conditions: 10 nM enzyme, 1 μM ATP, 30 mins, room temperature, read-out: PI3Kd/IC50. It is filed as biochemical.

Series [4] deals with T4, PI3Kγ (Homo sapiens, UniProt P48736, Q459R).
T4 construct: p110γ(Δ143-[Met144-1102])-His; made in house; host or cells: Tn5 insect cells; construct from Roger Williams lab, MRC LMB
T4 sequence (P48736 with tags, fused parts or gaps Q459R): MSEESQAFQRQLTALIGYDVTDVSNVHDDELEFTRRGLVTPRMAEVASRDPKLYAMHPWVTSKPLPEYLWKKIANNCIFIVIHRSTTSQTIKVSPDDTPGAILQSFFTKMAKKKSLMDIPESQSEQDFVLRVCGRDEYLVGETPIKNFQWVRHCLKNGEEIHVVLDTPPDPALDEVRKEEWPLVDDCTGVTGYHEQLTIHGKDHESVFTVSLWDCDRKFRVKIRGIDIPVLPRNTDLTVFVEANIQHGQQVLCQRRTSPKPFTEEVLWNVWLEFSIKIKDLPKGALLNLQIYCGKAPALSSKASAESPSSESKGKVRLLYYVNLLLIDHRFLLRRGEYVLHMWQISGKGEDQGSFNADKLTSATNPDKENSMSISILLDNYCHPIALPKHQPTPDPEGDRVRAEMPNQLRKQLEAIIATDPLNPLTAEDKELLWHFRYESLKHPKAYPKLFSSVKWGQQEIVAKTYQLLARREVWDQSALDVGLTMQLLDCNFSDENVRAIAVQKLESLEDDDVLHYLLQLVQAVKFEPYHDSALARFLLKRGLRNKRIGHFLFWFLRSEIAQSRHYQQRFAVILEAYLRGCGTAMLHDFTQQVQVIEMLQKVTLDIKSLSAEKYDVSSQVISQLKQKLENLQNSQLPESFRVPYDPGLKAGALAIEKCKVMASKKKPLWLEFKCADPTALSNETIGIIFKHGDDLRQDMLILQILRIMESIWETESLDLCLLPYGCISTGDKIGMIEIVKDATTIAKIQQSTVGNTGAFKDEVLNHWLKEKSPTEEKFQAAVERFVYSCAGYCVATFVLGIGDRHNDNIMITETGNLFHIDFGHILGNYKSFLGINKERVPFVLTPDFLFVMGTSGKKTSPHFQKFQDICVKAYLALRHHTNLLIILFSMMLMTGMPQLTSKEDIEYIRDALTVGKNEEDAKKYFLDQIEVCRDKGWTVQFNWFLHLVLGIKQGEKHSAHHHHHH
Briefly: PI3K KinaseGlo assay, PI3Kγ. Format: biochemical. As to conditions: 150 nM enzyme, 1 μM ATP, 90 mins, room temperature, read-out: PI3Kg/IC50. As to the method:
L-a-phosphatidylinositol (PI), provided as 10 mg/ml solution in methanol, was transferred into a glass tube and dried under nitrogen beam. It was then resuspended in 3% OctylGlucoside (OG) by vortexing and stored at 4° C. The KinaseGlo Luminescent Kinase Assay (Promega, Madison/WI, USA) is a homogeneous HTS method of measuring kinase activity by quantifying the amount of ATP remaining in solution following a kinase reaction.
5 μL of a mix of PI/OG with the PI3K subtype were added (Table 1). Kinase reactions were started by addition of 5 μl of ATP-mix containing in a final volume 10 μL 10 mM TRIS-HCl pH 7.5, 3 mM MgCl2, 50 mM NaCl, 0.05% CHAPS, 1 mM DTT and 1 μM ATP, and occurred at room temperature. […] The standard was used as a reference compound and included in all assay plates in the form of 16 dilution points in duplicate. […]
as §1
The lysate was centrifuged at 45,000 g for 30 minutes, and the supernatant was loaded onto a pre-equilibrated IMAC column (3 mL resin/100 mL lysate). […] Protein was eluted with 20 mM Tris-Cl, pH 7.5, 0.5 M NaCl, 5% glycerol, 250 mM imidazole, 1 mM NaF, 0.1 μg/mL OAA, 5 mM BME, 1× Complete protease inhibitor cocktail—EDTA-free. Pertinent fractions were analyzed by SDS-PAGE and pooled accordingly. The protein was further purified by gel filtration on a Superdex 200 26/60 column equilibrated in 20 mM Tris-Cl, pH 7.5, 0.5 M NaCl, 5% glycerol, 1 mM NaF, 5 mM DTT, 1× Complete protease inhibitor cocktail—EDTA-free. Pertinent fractions were analyzed by SDS-PAGE and pooled accordingly. An equal volume of Dialysis Buffer (20 mM Tris-Cl, pH 7.5, 500 mM NaCl, 50% glycerol, 5 mM NaF, 5 mM DTT) was added to the pool and than dialyzed against Dialysis Buffer two changes (one change overnight). Protein was stored at −20° C.

The target of series [5] is T5, PI3Kalpha wild type (Homo sapiens, UniProt P42336).
T5 construct: p110α(21-1068)-His; made in house
T5 sequence (P42336 with tags, fused parts or gaps): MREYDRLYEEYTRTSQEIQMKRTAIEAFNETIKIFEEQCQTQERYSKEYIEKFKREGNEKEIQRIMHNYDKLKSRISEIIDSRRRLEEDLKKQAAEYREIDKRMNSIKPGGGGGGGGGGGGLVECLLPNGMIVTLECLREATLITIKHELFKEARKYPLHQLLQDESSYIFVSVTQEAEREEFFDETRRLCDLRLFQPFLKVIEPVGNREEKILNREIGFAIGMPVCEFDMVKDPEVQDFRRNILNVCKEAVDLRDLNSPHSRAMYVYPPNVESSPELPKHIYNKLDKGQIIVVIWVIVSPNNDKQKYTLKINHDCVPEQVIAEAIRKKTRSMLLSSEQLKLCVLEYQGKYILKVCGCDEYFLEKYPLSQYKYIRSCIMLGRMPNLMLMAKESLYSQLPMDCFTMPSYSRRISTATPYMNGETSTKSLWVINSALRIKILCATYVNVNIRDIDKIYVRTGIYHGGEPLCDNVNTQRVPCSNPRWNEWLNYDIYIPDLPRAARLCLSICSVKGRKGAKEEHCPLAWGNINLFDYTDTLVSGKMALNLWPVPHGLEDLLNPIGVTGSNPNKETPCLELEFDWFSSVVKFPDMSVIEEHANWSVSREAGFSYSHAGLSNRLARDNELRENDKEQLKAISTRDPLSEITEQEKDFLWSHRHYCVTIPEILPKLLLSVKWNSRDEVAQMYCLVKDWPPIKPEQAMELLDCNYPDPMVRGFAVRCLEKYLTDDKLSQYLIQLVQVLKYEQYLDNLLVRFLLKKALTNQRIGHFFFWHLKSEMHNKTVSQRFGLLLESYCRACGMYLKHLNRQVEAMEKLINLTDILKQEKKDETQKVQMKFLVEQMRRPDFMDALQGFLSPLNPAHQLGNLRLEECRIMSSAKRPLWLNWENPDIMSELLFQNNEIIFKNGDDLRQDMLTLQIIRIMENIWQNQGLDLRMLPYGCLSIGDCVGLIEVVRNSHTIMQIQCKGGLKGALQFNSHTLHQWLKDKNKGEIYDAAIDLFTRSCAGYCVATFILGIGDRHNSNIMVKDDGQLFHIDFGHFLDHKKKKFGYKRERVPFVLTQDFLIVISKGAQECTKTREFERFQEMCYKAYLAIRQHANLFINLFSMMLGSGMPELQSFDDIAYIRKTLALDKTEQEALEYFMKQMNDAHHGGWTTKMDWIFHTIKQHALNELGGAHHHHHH
Briefly: Luciferase luminescence assay (KinaseGlo), PI3Kalpha wild type. It is filed as biochemical. To be noted: construct BV1075; 1 μM ATP, 15 min preincubation, 1 h, room temperature; read-out: PI3Kalpha wild type IC50s. An excerpt: (§2) Luminescence is a well established readout to determine ATP concentrations and can thus be used to follow the activity of many kinases regardless of their substrate. The KinaseGlo Luminescent Kinase Assay (Promega, Madison/WI, USA) is a homogeneous HTS method of measuring kinase activity by quantifying the amount of ATP remaining in solution following a kinase reaction.

Series [6] has as its target T6, PI3Kalpha E545K (Homo sapiens, UniProt P42336, E545K).
T6 construct: made in house; host or cells: baculovirus (vector LR561)
Briefly: Luciferase luminescence assay (KinaseGlo), PI3Kalpha E545K. As to conditions: construct BV1147; 1 μM ATP, 15 min preincubation, 1 h, room temperature; read-out: PI3Kalpha E545K IC50s. It is filed as biochemical.
Description: as §2

For series [7], the target named is T7, PI3Kalpha H1047R (Homo sapiens, UniProt P42336, H1047R).
T7 construct: made in house; host or cells: baculovirus (vector LR480)
T7 sequence (P42336 with tags, fused parts or gaps H1047R): as the sequence (P42336 with tags, fused parts or gaps) above, with G112I, G113S, G119I, G120M, G121V, H1148R counted along it
The series can be described thus: Luciferase luminescence assay (KinaseGlo), PI3Kalpha H1047R. It is filed as biochemical. As to conditions: construct BV1097; 1 μM ATP, 15 min preincubation, 1 h, room temperature; read-out: PI3Kalpha H1047R IC50s.
Description: as §2

The nature of series [8]: In vitro metabolic clearance, human liver microsomes (CYP MetCL-Hu). As to conditions: human liver microsomes 0.5 mg/mL, test article 1.0 μM, NADPH, 37° C.; read-out: CYP MetCL-Hu/CL(int). It is filed as in vitro ADME. As to the method:
(§3) Final test article and protein concentrations, as well as incubation duration, are shown below (Table 1). Low test article concentrations were selected to comply with the assumption that reaction kinetics are evaluated at a concentration less than (or approximately equal to) Km. DMSO is known to have an inhibitory effect on CYP activity. Therefore, the concentration of DMSO in the incubation media has been restricted to 0.01% (v/v) so that interference to the metabolic process is minimized.
(§4) A typical experiment is performed in 96-well format with shaking incubation at 37° C. […] A 30 minutes negative control incubation (minus cofactor) is also performed to assess CYP-unrelated stability issues (eg, chemical instability, CYP-independent metabolism).
In general, TA's in 10 mM DMSO are diluted 1:1000 into 0.6% ACN (v/v) in DiH20 to 10 μM. […] For evaluation of UGT-mediated metabolism, the suspension may be first pretreated by 5 min incubation on ice with alamethicin (25 μg/mg of microsomal protein). TA (35 μL) is added to 140 μL of the microsomal suspensions for 175 μL enzymesubstrate mixture. […] The 30 min negative control incubation is processed by combining 25 μL of enzyme.substrate mixture with an equal volume of 50 mM KPi containing 4 mM MgCl2. Following a 30 minute incubation at 37° C., the mix is quenched by adding 50 μL of ACN containing the MS internal standard (2 μM alprenolol). The T=0 min time point is processed by combining 25 μL of enzyme.substrate mixture directly with 50 μL of ACN containing the MS internal standard (2 μM alprenolol). 25 μL of the cofactor solution is added (2 mM NADPH in 50 mM KPi plus 4 mM MgCl2; optionally including 2 mM UDPGA for CYP+UGT assays) to simulate the complete quenched reaction mixture.
(§5) The bulk reactions for the remaining time points are initiated by addition of 125 μL of cofactor solution (2 mM NADPH in 50 mM KPi plus 4 mM MgCl2) to the remaining 125 μL of enzyme.substrate mixture. […] All the samples are centrifuged at ˜3400×g at 4° C. for 10 min and the supernatants are analyzed by LC-MS/MS for quantitation of remaining TA. […]
(Liver microsomes are vesicles of endoplasmic reticulum, rich in cytochrome P450 enzymes.)

Series [9] in a line: In vitro metabolic clearance, rat liver microsomes (CYP MetCL-Ra). As to conditions: rat liver microsomes 0.5 mg/mL, test article 1.0 μM, NADPH, 37° C.; read-out: CYP MetCL-Ra/CL(int). Format: in vitro ADME. Here is the method: as §3, §4
In general, TA's in 10 mM DMSO are diluted 1:1000 into 0.6% ACN (v/v) in DiH20 to 10 μM. […] For evaluation of UGT-mediated metabolism, the suspension may be first pretreated by 5 min incubation on ice with alamethicin (25 μg/mg of microsomal protein). […]
as §5

The structures appear in SMILES notation.

T6 sequence (P42336 with tags, fused parts or gaps E545K): as the sequence (P42336 with tags, fused parts or gaps) above, with G112I, G113S, G119I, G120M, G121V, E646K counted along it
T2 sequence (P42338 with tags, fused parts or gaps): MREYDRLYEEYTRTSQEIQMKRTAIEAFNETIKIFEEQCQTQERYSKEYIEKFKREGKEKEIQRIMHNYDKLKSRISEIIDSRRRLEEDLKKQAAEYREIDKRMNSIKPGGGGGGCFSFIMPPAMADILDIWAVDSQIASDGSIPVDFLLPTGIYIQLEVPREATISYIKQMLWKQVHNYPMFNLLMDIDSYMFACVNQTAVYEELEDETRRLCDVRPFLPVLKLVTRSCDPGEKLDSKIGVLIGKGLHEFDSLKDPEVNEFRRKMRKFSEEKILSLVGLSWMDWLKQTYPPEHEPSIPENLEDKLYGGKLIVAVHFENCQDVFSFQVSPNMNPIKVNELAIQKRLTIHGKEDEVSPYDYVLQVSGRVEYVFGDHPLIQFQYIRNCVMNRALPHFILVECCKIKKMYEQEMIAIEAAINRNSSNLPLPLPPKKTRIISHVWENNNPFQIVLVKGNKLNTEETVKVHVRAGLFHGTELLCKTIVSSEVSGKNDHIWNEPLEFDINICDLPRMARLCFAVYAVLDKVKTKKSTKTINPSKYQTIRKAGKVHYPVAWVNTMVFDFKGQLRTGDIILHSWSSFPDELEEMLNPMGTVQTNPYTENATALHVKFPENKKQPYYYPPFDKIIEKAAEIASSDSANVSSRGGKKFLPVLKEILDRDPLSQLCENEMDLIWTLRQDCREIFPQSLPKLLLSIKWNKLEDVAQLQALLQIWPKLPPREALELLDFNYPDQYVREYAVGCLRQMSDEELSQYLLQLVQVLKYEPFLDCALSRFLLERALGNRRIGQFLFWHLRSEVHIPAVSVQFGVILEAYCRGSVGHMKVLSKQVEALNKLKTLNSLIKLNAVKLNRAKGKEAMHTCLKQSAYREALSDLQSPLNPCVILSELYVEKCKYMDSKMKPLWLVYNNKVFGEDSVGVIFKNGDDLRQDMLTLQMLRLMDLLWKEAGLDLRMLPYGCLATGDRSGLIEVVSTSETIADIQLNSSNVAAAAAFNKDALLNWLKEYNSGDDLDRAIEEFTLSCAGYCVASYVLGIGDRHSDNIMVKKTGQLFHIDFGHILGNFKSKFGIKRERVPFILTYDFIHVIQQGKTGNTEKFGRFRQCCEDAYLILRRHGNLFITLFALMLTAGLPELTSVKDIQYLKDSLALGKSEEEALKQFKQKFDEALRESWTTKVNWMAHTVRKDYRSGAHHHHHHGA
T1 sequence (P42336 with tags, fused parts or gaps): as the sequence (P42336 with tags, fused parts or gaps) above

Consider `Cc1nc(NC(=O)N2CCC[C@H]2C(N)=O)sc1-c1ccnc(C2(C)CC2)c1` [Example 5, (S)-Pyrrolidine-1,2-dicarboxylic acid 2-amide 1-({4-methyl-5-[2-(1-methylcyclopropyl)-pyridin-4-yl]-thiazol-2-yl}-amide)], for which the IC50 in series [1] was 44 nM; in series [2] it was 3900 nM; in series [3], 648 nM; in [4], 2050 nM; in [5], 8.2 nM; in series [6], 6.7 nM. Further, the IC50 in [7] was found to be 7.7 nM.

For `Cc1nc(NC(=O)N2CCC[C@H]2C(N)=O)sc1-c1ccnc(C(C)(C)C(F)(F)F)c1` [Example 15, (S)-Pyrrolidine-1,2-dicarboxylic acid 2-amide 1-({4-methyl-5-[2-(2,2,2-trifluoro-1,1-dimethyl-ethyl)-pyridin-4-yl]-thiazol-2-yl}-amide)], the microsomal CLint at 1 μM in series [8] is 33 µL/min/mg.

Take `Cc1nc(NC(=O)N2CCC[C@H]2C(N)=O)sc1-c1ccnc(C(C)(CF)CF)c1` [Example 55, (S)-Pyrrolidine-1,2-dicarboxylic acid 2-amide 1-({5-[2-(2-fluoro-1-fluoromethyl-1-methyl-ethyl)-pyridin-4-yl]-4-methyl-thiazol-2-yl}-amide)]: the microsomal CLint at 1 μM in series [9] is 29 µL/min/mg; in [8] it was 27 µL/min/mg.

With `[2H]C([2H])([2H])C(c1nccc(-c2sc(NC(=O)N3CCC[C@H]3C(N)=O)nc2C)n1)(C([2H])([2H])[2H])C([2H])([2H])[2H]` [Example 61, (S)-Pyrrolidine-1,2-dicarboxylic acid 2-amide 1-{[5-(2-d9-tert-butyl-pyrimidin-4-yl)-4-methyl-thiazol-2-yl]-amide}], the microsomal CLint at 1 μM in series [9] stood at 22 µL/min/mg; in series [8] it was 19 µL/min/mg.
